Assay [1] relates to mouse L929 fibrosarcoma cells. Nature of the assay: necroptosis assay in L929 cells. It counts as cell-based. Conditions: viability by cellular ATP (Cell Titer-Glo), read-out: mean pIC50, inhibition of necrosis in L929 cells (converted). The method, then:
(§1) The efficacy of RIP1 inhibitors can be tested […] in vitro using a human monocytic leukemia U937 or mouse L929 fibrosarcoma cells in a necroptosis assay. As determined using the method described in He, S. et al. 2009. Cell 137(6):1100-1111 and International Patent Appln. No. PCT/IB2014/059004, now, International Patent Appln. Pub.
(§2) Viability was measured by quantitating cellular levels of ATP using the Cell Titer-Glo kit. All data are means±standard deviation of the mean.

The next assay deals with T1, RIP1 kinase (Homo sapiens, UniProt Q13546).
T1 sequence (Q13546 1-375 limits assumed): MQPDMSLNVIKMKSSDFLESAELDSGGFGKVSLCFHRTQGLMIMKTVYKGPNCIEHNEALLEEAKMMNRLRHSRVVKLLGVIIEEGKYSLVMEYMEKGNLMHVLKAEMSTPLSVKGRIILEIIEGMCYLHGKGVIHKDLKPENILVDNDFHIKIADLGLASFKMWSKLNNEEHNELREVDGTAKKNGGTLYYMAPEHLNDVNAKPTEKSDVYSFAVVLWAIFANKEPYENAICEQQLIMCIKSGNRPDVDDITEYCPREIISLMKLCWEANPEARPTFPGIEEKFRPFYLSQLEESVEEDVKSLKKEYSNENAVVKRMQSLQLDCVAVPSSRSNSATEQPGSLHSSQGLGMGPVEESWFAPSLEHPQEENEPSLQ
Nature of the assay: fluorescent polarization based binding assay. Conditions: mean value, minimum of 2 experiments. From the text:
A fluorescent polarization based binding assay was used to asses the activity of the compounds of this invention, the details of which are disclosed in International Patent Appln. No. PCT/IB2014/059004, now, International Patent Appln. Pub.

Assay [2] relates to human monocytic leukemia U937 cells. Nature of the assay: necroptosis assay in U937 cells. The assay is classed as cell-based. Conditions: viability by cellular ATP (Cell Titer-Glo); for IC50: Homo sapiens, U-937, U937 cells, read-out: mean pIC50, inhibition of necrosis in U937 cells (converted). How it is done: as §1, §2
Assay [3] concerns TNF/zVAD induced temperature loss in mice. Nature of the assay: TNF-driven systemic inflammatory response syndrome model using TNF plus zVAD (temperature loss). The assay is classed as in vivo, mouse.
The mark [4] stands for this setting: 10 mg/kg PO, pre-dosed 15 minutes before i.v. mouse TNF and zVAD.

For `O=C(C1CCN(c2ccc(F)cn2)CC1)N1N=CCC1c1ccccc1` (stereo not drawn) [Example 2, (1-(5-fluoropyridin-2-yl)-piperidin-4-yl)(5-phenyl-4,5-dihydro-1H-pyrazol-1-yl)methanone], the IC50 in assay [1] is about 200 nM; on RIP1 kinase, about 39.8 nM.
Turning to `O=C(C1CCN(c2ccc(F)cn2)CC1)N1N=CC[C@H]1c1ccccc1` [Example 3, (S)-(1-(5-fluoropyridin-2-yl)piperidin-4-yl)(5-phenyl-4,5-dihydro-1H-pyrazol-1-yl)methanone], the IC50 was 1 to 100 nM in assay [2] and 1 to 10 nM at RIP1 kinase.
On the same counts, the results for `O=C(C1CCN(c2ncc(F)cn2)CC1)N1N=CC[C@H]1c1ccccc1` [Example 7, (S)-(1-(5-fluoropyrimidin-2-yl)piperidin-4-yl)(5-phenyl-4,5-dihydro-1H-pyrazol-1-yl)methanone] are 1 to 100 nM and 1 to 10 nM.
At RIP1 kinase, `O=C(C1CCN(c2ncccn2)CC1)N1N=CCC1c1cncc(F)c1` (stereo not drawn) [Example 11, (5-(5-fluoropyridin-3-yl)-4,5-dihydro-1H-pyrazol-1-yl)(1-(pyrimidin-2-yl)-piperidin-4-yl)methanone] gave an IC50 of about 31.6 nM.
On the same count and under the same terms, for `CC(=O)N1CCC(C(=O)N2N=CCC2c2ccc3c(c2)OCO3)CC1` (stereo not drawn) [Example 12, 1-(4-(5-(benzo[d][1,3]-dioxol-5-yl)-4,5-dihydro-1H-pyrazole-1-carbonyl)-piperidin-1-yl)ethanone] the value was about 501 nM.
For `CC(C)(C)C(=O)N1N=CC[C@H]1c1ccccc1` [Example 13, (S)-2,2-dimethyl-1-(5-phenyl-4,5-dihydro-1H-pyrazol-1-yl)propan-1-one], the “% Inhibition” value in assay [3] (20 mg/kg IP, pre-dosed 15 minutes before i.v. mouse TNF (30 μg/mouse) and zVAD (0.4 mg/mouse)) turned out to be 80%. In addition, in assay [1], the IC50 is about 5.01 nM.
As for `CC(C)(C)C(=O)N1N=CC[C@H]1c1cncc(F)c1` [Example 15, (S)-1-(5-(5-fluoro-pyridin-3-yl)-4,5-dihydro-1H-pyrazol-1-yl)-2,2-dimethyl-propan-1-one], in assay [2], the “mean pIC50, inhibition of necrosis in U937 cells” value (“mean pIC50, inhibition” below) is given as about 7.2. Moreover, the IC50 was about 20 nM in assay [1] and about 79.4 nM at RIP1 kinase.
For the compound `Cc1ccc(C(=O)N2N=CCC2c2ccccc2)cc1` (stereo not drawn) [Example 17, (5-phenyl-4,5-dihydro-1H-pyrazol-1-yl)(p-tolyl)-methanone], the values for the IC50 (in assay [2]; on RIP1 kinase) were about 631 nM and about 126 nM, respectively.
The like results for `O=C(C1CCN(c2ncccn2)CC1)N1N=CC[C@H]1c1cccnc1` [Example 32, (S)-(5-(pyridin-3-yl)-4,5-dihydro-1H-pyrazol-1-yl)(1-(pyrimidin-2-yl)-piperidin-4-yl)-methanone] were, in that order, about 158 nM and about 31.6 nM.
`CC(C)(C)C(=O)N1N=CC[C@H]1c1ccc(Cl)c(Cl)c1` [Example 40, (S)-1-(5-(3,4-dichlorophenyl)-4,5-dihydro-1H-pyrazol-1-yl)-2,2-dimethyl-propan-1-one]: the IC50 in assay [1] was about 15.8 nM; on RIP1 kinase it was about 50.1 nM.
Consider `CC(C)(C)C(=O)N1N=CC[C@H]1c1cccc(Cl)c1` [Example 44, (S)-1-(5-(3-chlorophenyl)-4,5-dihydro-1H-pyrazol-1-yl)-2,2-dimethyl propan-1-one], for which the IC50 in assay [1] is about 39.8 nM.
`CC(C)(C)C(=O)N1N=CC[C@H]1c1ccccn1` [Example 48, (S)-2,2-dimethyl-1-(5-(pyridin-2-yl)-4,5-dihydro-1H-pyrazol-1-yl)-propan-1-one]: the “% Inhibition” value worked out at 17% in assay [3] (0.5 mg/kg IP, pre-dosed 15 minutes before i.v. mouse TNF and zVAD); 52% in assay [3] (5 mg/kg IP, pre-dosed 15 minutes before i.v. mouse TNF and zVAD); 91% in assay [3] (50 mg/kg IP, pre-dosed 15 minutes before i.v. mouse TNF and zVAD). Moreover, the IC50 in assay [1] was about 200 nM.
For the compound `Cc1ccc([C@@H]2CC=NN2C(=O)C(C)(C)C)cn1` [Example 50, (S)-2,2-dimethyl-1-(5-(6-methylpyridin-3-yl)-4,5-dihydro-1H-pyrazol-1-yl)propan-1-one], the values for the IC50 (in assay [2]; in assay [1]; on RIP1 kinase) were about 158 nM, about 20 nM and about 631 nM, respectively.
`CC(C)(C)C(=O)N1N=CC[C@H]1C1CCCCC1` [Example 56, (S)-1-(5-cyclohexyl-4,5-dihydro-1H-pyrazol-1-yl)-2,2-dimethylpropan-1-one]: the IC50 in assay [1] is about 50.1 nM.
For the compound `CC(C)(C)C(=O)N1N=CC[C@H]1c1ccc(C(F)(F)F)cc1` [Example 62, (S)-2,2-dimethyl-1-(5-(4-(trifluoromethyl)-phenyl)-4,5-dihydro-1H-pyrazol-1-yl)propan-1-one], the “mean pIC50, inhibition” value in assay [2] is listed as about 7.2. At RIP1 kinase, this compound had an IC50 of about 79.4 nM.
Take `CC(C)(C)C(=O)N1N=CC[C@H]1c1ccc(Cl)cc1` [Example 66, (S)-1-(5-(4-chlorophenyl)-4,5-dihydro-1H-pyrazol-1-yl)-2,2-dimethyl-propan-1-one]: the “% Inhibition” value in assay [3] (0.1 mg/kg IP, pre-dosed 15 minutes before i.v. mouse TNF and zVAD) is on record as 52%. The IC50 in assay [1] was about 0.00158 nM.
Consider `CC(C)(C)C(=O)N1N=CC[C@H]1c1cccc(F)c1` [Example 68, (S)-1-(5-(3-fluorophenyl)-4,5-dihydro-1H-pyrazol-1-yl)-2,2-dimethyl-propan-1-one 2,2,2-trifluoroacetate], for which the IC50 in assay [1] was about 5.01 nM.
With `O=C(C1CCN(c2ccccn2)CC1)N1N=CC[C@H]1c1cccnc1` [Example 70, (S)-(1-(pyridin-2-yl)piperidin-4-yl) (5-(pyridin-3-yl)-4,5-dihydro-1H-pyrazol-1-yl)-methanone], at RIP1 kinase, the IC50 is about 398 nM.
On to `CC(C)(C)C(=O)N1N=CC[C@H]1c1ccc2[nH]ccc2c1` [Example 91, (S)-1-(5-(1H-indol-5-yl)-4,5-dihydro-1H-pyrazol-1-yl)-2,2-dimethylpropan-1-one], for which the IC50 in assay [2] was about 100 nM; in assay [1], about 251 nM; on RIP1 kinase it was about 251 nM.
Consider `CC(C)(C)C(=O)N1N=CC[C@H]1c1cccc2[nH]ccc12` [Example 93, (S)-1-(5-(1H-indol-4-yl)-4,5-dihydro-1H-pyrazol-1-yl)-2,2-dimethylpropan-1-one], for which the “mean pIC50, inhibition” value in assay [2] is about 7.0. In addition, the figures for the IC50 (in assay [1]; on RIP1 kinase) were about 79.4 nM and about 100 nM, respectively.
As for `O=C(c1cnsn1)N1CCC(C(=O)N2N=CCC2c2ccccc2)CC1` (stereo not drawn) [Example 155, (1-(1,2,5-thiadiazole-3-carbonyl)piperidin-4-yl)(5-phenyl-4,5-dihydro-1H-pyrazol-1-yl)methanone], the IC50 in assay [2] was 1 to 100 nM. Besides, the “% Inhibition” value in assay [3] (setting [4]) is listed as 49%.
`Cc1ocnc1C(=O)N1CCC(C(=O)N2N=CCC2c2ccccc2)CC1` (stereo not drawn) [Example 158, (5-methyloxazol-4-yl)(4-(5-phenyl-4,5-dihydro-1H-pyrazole-1-carbonyl)piperidin-1-yl)methanone]: the IC50 in assay [2] was 1 to 100 nM. For the same compound, the “% Inhibition” value in assay [3] (setting [4]) came out at 77%.
With `O=C(C1CCN(c2ncccn2)CC1)N1N=CC[C@H]1c1ccccc1` [Example 172, (S)-(5-phenyl-4,5-dihydro-1H-pyrazol-1-yl)(1-(pyrimidin-2-yl)piperidin-4-yl)methanone], in assay [1], the IC50 was about 631 nM.
Regarding `O=C(N1N=CCC1c1ccccc1)C1(F)CCN(c2ncc(F)cn2)CC1` (stereo not drawn) [Example 189, (4-fluoro-1-(5-fluoropyrimidin-2-yl)piperidin-4-yl)(5-phenyl-4,5-dihydro-1H-pyrazol-1-yl)methanone], the IC50 is 1 to 100 nM in assay [2] and 1 to 10 nM at RIP1 kinase.
On to `CC(=O)N1CCC(C(=O)N2N=CCC2c2ccccc2)CC1` (stereo not drawn) [Example 193, 1-(4-(5-phenyl-4,5-dihydro-1H-pyrazole-1-carbonyl)piperidin-1-yl)ethanone], for which the “% Inhibition” value in assay [3] (140 mg/kg PO, pre-dosed 15 minutes before i.v. mouse TNF and zVAD) was 94%.

The record behind these values is US10590085B2, “Heterocyclic amides as kinase inhibitors” (GlaxoSmithKline Intellectual Property Development Limited, priority 2015, dated 2020).
